Reference: patent publication US20130109682A1, “CYCLIC ETHER COMPOUNDS USEFUL AS KINASE INHIBITORS” (NOVARTIS AG, priority 2010, published 2013)
pEC50, pIC50: −log10 of the molar value.

Tests used:
hERG = target: T1, hERG (Homo sapiens, UniProt Q12809); assay: hERG binding assay ([3H] dofetilide displacement); conditions: dofetilide displacement; read-out: HERGdof IC50
T1 construct: host or cells: crude membrane suspension
Protocol: Compounds of the invention were pipetted into each well of pre-wet 96-well Millipore GF/C filter plates (#MSFCN6B50): 119 μl assay buffer, 1 μl test compound in 100% DMSO (or 100% DMSO only for total binding), 40 μl [3H] dofetilide (12.5 nM, final concentration 2.5 nM; Novartis radioisotope laboratory, East Hanover, N.J., USA, specific activity 15-45 Ci/mmol); 40 μl crude membrane suspension (ca. 15 μg protein). The final concentration of DMSO during the incubation was 0.5%. Incubations were performed at room temperature for 90 min. Non-specific binding (NSB) was defined as the binding remaining in the presence of 25 μM terfenadine (Sigma T9652). The incubations were terminated by rapid filtration on a Millipore filtration manifold, followed by three washes of 200 μA ice-cold assay buffer. The plates were left to dry overnight before adding 40 μA scintillant (MicroScint-20). The plates were then sealed (Sealing Tape SI, Nunc 236366) and read in a Wallac MicroBeta Trilux beta-counter for 1.5 min per well. Compounds were tested as 9-concentration response curves in duplicate, ranging from 30 μM to 3 nM in 1:3 dilution steps. Dilution curves were prepared in 100% DMSO. The reference compound (terfenadine) was tested as an eight-concentration response curve, ranging from 10 μM to 0.6 nM in 1:4 dilution steps.

PIM3 = PIM3 (Homo sapiens, UniProt Q86V86); assay: KinaseGlo Pim3 ATP depletion assay; format: biochemical
Method in brief: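 Residual ATP was detected by luciferase luminescence once about half had been consumed. The reaction contained 5 nM enzyme, 100 μM BAD peptide (RSRHSSYPAGT) and 40 μM ATP in 50 mM HEPES pH 7.5, 5 mM MgCl2, 1 mM DTT and 0.05% BSA with 2.5% DMSO. Compound and enzyme/peptide were premixed 15 min before ATP.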

[1] = test system: KMS11 (human myeloma cell line); assay: Cell proliferation assay (CellTiter-Glo), KMS11; format: cell-based; conditions: KMS11-Luc cells
Method in brief: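 EC50 derived from CellTiter-Glo luminescence after 3-day exposure at 37° C. Compound was diluted to 2× in medium and added to an equal volume of cells. KMS11 myeloma cells were plated on assay day at 2000/well in IMDM with 10% FBS and sodium pyruvate.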

PIM1 = PIM1 (Homo sapiens, UniProt P11309); assay: KinaseGlo Pim1 ATP depletion assay; format: biochemical
Method in brief: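 IC50 is derived from residual ATP measured by KinaseGlo Plus luminescence once about half the ATP was consumed. Final conditions were 20 μM ATP, 40 μM BAD peptide and 2.5 nM kinase in HEPES pH 7.5 buffer with MgCl2, DTT and BSA, plus 2.5% DMSO. Compound and enzyme were premixed 15 min before ATP addition.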

GSK3β = GSK3β (Homo sapiens, UniProt P49841); assay: GSK3β ATP depletion assay; format: biochemical; conditions: read-out: GSK3b IC50
Method in brief: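 Kinase activity is read as ATP consumption: luciferase luminescence reports the ATP remaining once roughly half of the 2 μM ATP is used. Reaction mix: 5 nM GSK3β, 10 μM b-CREB peptide, 50 mM Tris pH 7.5, 15 mM MgCl2, 1 mM DTT, 0.1% BSA, 2.5% DMSO. Enzyme and peptide are preincubated 15 min before ATP is added.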

PIM2 = PIM2 (Homo sapiens, UniProt Q9P1W9); assay: KinaseGlo Pim2 ATP depletion assay; format: biochemical
Method in brief: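 Compound sat 15 min with enzyme and BAD peptide before ATP was added; final levels 5 nM PIM2, 10 μM peptide, 4 μM ATP, 2.5% DMSO, pH 7.5 HEPES buffer with MgCl2, DTT, BSA. Stopped near 50% ATP consumption; remaining ATP measured by luciferase luminescence.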

PIM1, sequence (P11309 whole entry): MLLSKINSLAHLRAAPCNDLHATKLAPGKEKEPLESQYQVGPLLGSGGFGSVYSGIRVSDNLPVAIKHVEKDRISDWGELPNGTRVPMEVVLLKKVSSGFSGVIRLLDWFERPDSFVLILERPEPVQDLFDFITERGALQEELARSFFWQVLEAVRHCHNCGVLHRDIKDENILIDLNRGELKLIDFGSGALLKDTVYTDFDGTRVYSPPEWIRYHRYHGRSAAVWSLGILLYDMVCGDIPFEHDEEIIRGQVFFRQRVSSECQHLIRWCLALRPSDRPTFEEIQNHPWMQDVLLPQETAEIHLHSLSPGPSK
PIM2, sequence (Q9P1W9 whole entry): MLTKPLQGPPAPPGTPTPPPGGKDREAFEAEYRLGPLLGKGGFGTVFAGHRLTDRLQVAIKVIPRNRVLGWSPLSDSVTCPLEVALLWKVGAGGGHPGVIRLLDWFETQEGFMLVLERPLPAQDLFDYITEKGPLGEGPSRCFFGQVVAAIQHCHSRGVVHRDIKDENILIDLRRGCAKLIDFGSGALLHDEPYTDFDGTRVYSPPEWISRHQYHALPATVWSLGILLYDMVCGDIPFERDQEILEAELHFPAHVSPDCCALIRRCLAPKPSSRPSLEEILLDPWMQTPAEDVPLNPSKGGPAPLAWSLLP
T1 sequence (Q12809 whole entry): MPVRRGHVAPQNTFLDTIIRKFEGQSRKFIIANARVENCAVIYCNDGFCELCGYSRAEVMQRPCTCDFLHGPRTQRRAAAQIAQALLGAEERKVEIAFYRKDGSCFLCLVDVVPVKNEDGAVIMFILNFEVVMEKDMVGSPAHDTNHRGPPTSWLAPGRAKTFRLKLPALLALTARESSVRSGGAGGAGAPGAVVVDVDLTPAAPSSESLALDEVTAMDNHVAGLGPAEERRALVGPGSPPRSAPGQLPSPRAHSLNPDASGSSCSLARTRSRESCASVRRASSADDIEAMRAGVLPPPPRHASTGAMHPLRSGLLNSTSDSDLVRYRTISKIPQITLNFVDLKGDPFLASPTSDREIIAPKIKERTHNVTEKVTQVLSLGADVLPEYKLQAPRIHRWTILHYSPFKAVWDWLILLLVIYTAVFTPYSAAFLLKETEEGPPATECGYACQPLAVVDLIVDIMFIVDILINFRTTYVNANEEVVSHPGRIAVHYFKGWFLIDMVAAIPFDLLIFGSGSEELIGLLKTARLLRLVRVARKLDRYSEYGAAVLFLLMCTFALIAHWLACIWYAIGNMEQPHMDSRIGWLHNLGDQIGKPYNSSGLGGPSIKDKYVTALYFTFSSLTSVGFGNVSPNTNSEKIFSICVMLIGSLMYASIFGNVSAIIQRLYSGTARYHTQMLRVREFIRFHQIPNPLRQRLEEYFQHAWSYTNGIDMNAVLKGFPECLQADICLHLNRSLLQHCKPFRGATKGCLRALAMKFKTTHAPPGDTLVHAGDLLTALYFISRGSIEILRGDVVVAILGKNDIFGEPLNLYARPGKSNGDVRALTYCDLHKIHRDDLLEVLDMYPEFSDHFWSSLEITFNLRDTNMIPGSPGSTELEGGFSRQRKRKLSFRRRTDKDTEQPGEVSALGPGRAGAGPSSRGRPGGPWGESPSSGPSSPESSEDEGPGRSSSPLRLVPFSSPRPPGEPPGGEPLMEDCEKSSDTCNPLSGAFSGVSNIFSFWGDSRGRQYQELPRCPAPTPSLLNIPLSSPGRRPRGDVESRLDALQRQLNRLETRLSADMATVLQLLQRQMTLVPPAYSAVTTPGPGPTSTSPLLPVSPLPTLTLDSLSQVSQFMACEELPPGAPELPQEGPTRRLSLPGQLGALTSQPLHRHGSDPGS
GSK3β, sequence (P49841 whole entry, species assumed): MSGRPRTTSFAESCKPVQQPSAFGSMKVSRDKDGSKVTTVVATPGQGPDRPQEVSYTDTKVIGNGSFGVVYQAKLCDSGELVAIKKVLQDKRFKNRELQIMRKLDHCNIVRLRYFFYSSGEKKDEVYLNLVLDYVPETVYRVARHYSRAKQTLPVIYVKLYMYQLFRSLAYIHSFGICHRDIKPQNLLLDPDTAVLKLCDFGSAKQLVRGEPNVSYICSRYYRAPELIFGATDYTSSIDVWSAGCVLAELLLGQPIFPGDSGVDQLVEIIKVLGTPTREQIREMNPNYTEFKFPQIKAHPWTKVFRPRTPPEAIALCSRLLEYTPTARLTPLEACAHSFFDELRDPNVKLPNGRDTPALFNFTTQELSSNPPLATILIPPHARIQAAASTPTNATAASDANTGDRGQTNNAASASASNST

Row | SMILES | pIC50 (PIM3) | pEC50 ([1]; Homo sapiens, KMS-11) | pIC50 (PIM1) | pIC50 (GSK3β) | pIC50 (PIM2) | pEC50 [1] | pIC50 (hERG)
1 | C[C@H]1C[C@@H](N)C[C@@H](c2ccncc2NC(=O)c2csc(-c3c(F)cccc3F)n2)O1 [Example 123, N-(4-((2S,4R,6S)-4-amino-6-methyltetrahydro-2H-pyran-2-yl)pyridin-3-yl)-2-(2,6-difluorophenyl)thiazole-4-carboxamide] | 8.15 | 5.38 | 9.00 | 6.38 | 7.36 |  | 4.92
2 | C[C@@H]1C[C@H](N)C[C@H](c2ccncc2NC(=O)c2csc(-c3c(F)cccc3F)n2)O1 [Example 121, N-(4-((2R,4S,6R)-4-amino-6-methyltetrahydro-2H-pyran-2-yl)pyridin-3-yl)-2-(2,6-difluorophenyl)thiazole-4-carboxamide] | 7.36 | 5.33 | 8.05 | 5.49 | 6.10 |  | 5.00
3 | O=C(Nc1cnccc1[C@H]1C[C@@H](O)CCO1)c1ccc(F)c(-c2c(F)cccc2F)n1 [Example 129, 6-(2,6-difluorophenyl)-5-fluoro-N-(4-((2R,4S)-4-hydroxytetrahydro-2H-pyran-2-yl)pyridin-3-yl)picolinamide] | 7.89 | < 5.00 | 8.70 | 6.44 | 6.83 |  | < 4.52
4 | C[C@@H]1C[C@H](N)C[C@H](c2ccncc2NC(=O)c2ccc(F)c(-c3c(F)cccc3F)n2)O1 [Example 122, N-(4-((2R,4S,6R)-4-amino-6-methyltetrahydro-2H-pyran-2-yl)pyridin-3-yl)-6-(2,6-difluorophenyl)-5-fluoropicolinamide] | 8.00 | 5.33 | 8.70 | 4.91 | 7.35 |  | 5.70
5 | CC[C@@]1(O)[C@H](O)C[C@H](c2ccncc2NC(=O)c2ccc(F)c(-c3c(F)cccc3F)n2)O[C@@H]1C [Example 74, 6-(2,6-difluorophenyl)-N-(4-((2R,4R,5R,6R)-5-ethyl-4,5-dihydroxy-6-methyltetrahydro-2H-pyran-2-yl)pyridin-3-yl)-5-fluoropicolinamide] | 8.30 | 5.44 | 9.00 | 6.50 | 7.96 |  | < 4.52
6 | C[C@H]1C[C@@H](O)C[C@@H](c2ccncc2NC(=O)c2csc(-c3c(F)cccc3F)n2)O1 (stereo in doubt) [Example 127, 2-(2,6-difluorophenyl)-N-(4-((2S,4R,6S)-4-hydroxy-6-methyltetrahydro-2H-pyran-2-yl)pyridin-3-yl)thiazole-4-carboxamide] | 7.72 | 5.02 | 9.00 | 7.60 | 6.49 |  | < 4.52

These reach a higher pIC50 (PIM3). Values come first.

Row | pIC50 (PIM3) | pEC50 ([1]; Homo sapiens, KMS-11) | pIC50 (PIM1) | pIC50 (GSK3β) | pIC50 (PIM2) | pEC50 [1] | SMILES | pIC50 (hERG)
7 | 8.70 | 5.89 | 9.00 | 6.65 | 8.30 |  | C[C@@H]1O[C@H](c2ccncc2NC(=O)c2ccc(F)c(-c3c(F)cccc3F)n2)C[C@H](N)[C@H]1O [Example 115, N-(4-((2S,4S,5R,6S)-4-amino-5-hydroxy-6-methyltetrahydro-2H-pyran-2-yl)pyridin-3-yl)-6-(2,6-difluorophenyl)-5-fluoropicolinamide] | 4.66
8 | 8.70 | 5.92 | 9.00 | 6.79 | 8.52 |  | C[C@@H]1O[C@H](c2ccncc2NC(=O)c2ccc(F)c(-c3c(F)cccc3F)n2)C[C@H](O)[C@@]1(C)O (stereo in doubt) [Example 112, 6-(2,6-difluorophenyl)-N-(4-((2S,4S,5R,6S)-4,5-dihydroxy-5,6-dimethyltetrahydro-2H-pyran-2-yl)pyridin-3-yl)-5-fluoropicolinamide] | < 4.52
9 | 8.70 |  | 9.00 | 7.00 | 8.52 | 5.71 | CC[C@]1(O)[C@H](O)C[C@H](c2ccncc2NC(=O)c2nc(-c3c(F)cccc3F)ncc2N)O[C@@H]1C [Example 16, 5-amino-2-(2,6-difluorophenyl)-N-(4-((2R,4R,5S,6R)-5-ethyl-4,5-dihydroxy-6-methyltetrahydro-2H-pyran-2-yl)pyridin-3-yl)pyrimidine-4-carboxamide] | < 4.52
10 | 8.70 | 5.64 | 8.70 | 6.01 | 8.52 |  | CC(C)NC(=O)c1ccc(F)c(-c2ccc(N)c(C(=O)Nc3cnccc3[C@H]3C[C@@H](O)[C@](C)(O)[C@@H](C)O3)n2)c1 [Example 104, 3-amino-N-(4-((2R,4R,5S,6R)-4,5-dihydroxy-5,6-dimethyltetrahydro-2H-pyran-2-yl)pyridin-3-yl)-6-(2-fluoro-5-(isopropylcarbamoyl)phenyl)picolinamide] | < 4.52
11 | 8.70 | 6.10 | 9.00 | 6.26 | 7.80 |  | CC1C(c2ccncc2NC(=O)c2ccc(F)c(-c3c(F)cccc3F)n2)OC(C)[C@@H](O)C1O (stereo in doubt) [Example 64, 6-(2,6-difluorophenyl)-N-(4-((2S,3R,4S,5S,6S)-4,5-dihydroxy-3,6-dimethyltetrahydro-2H-pyran-2-yl)pyridin-3-yl)-5-fluoropicolinamide] | < 4.52
12 | 8.52 | 5.08 | 9.00 | 7.29 | 7.34 |  | CC1C(c2ccncc2NC(=O)c2ccc(F)c(-c3c(F)cccc3F)n2)OC(C)[C@H](O)C1O (stereo in doubt) [Example 65, 6-(2,6-difluorophenyl)-N-(4-((2R,3S,4R,5R,6R)-4,5-dihydroxy-3,6-dimethyltetrahydro-2H-pyran-2-yl)pyridin-3-yl)-5-fluoropicolinamide] | < 4.52
13 | 9.00 | 6.70 | 9.00 | 7.00 | 8.70 |  | CC[C@]1(O)[C@H](C)O[C@H](c2ccncc2NC(=O)c2ccc(F)c(-c3c(F)cccc3F)n2)C[C@@H]1O (stereo in doubt) [Example 76, 6-(2,6-difluorophenyl)-N-(4-((2S,4S,5R,6S)-5-ethyl-4,5-dihydroxy-6-methyltetrahydro-2H-pyran-2-yl)pyridin-3-yl)-5-fluoropicolinamide] | < 4.52
14 | 8.52 | 6.30 | 8.70 | 6.04 | 8.70 |  | CC(C)NC(=O)c1ccc(F)c(-c2ccc(N)c(C(=O)Nc3cnccc3[C@@H]3C[C@@H](O)[C@](C)(O)[C@@H](C)O3)n2)c1F [Example 98, 3-amino-6-(2,6-difluoro-3-(isopropylcarbamoyl)phenyl)-N-(4-((2S,4R,5S,6R)-4,5-dihydroxy-5,6-dimethyltetrahydro-2H-pyran-2-yl)pyridin-3-yl)picolinamide] | < 4.52
15 | 8.70 | 5.80 | 9.00 | 5.47 | 8.30 |  | C[C@H]1C[C@@H](N)C[C@@H](c2ccncc2NC(=O)c2ccc(F)c(-c3c(F)cccc3F)n2)O1 [Example 124, N-(4-((2S,4R,6S)-4-amino-6-methyltetrahydro-2H-pyran-2-yl)pyridin-3-yl)-6-(2,6-difluorophenyl)-5-fluoropicolinamide] | 5.52
